Data as given in patent US6914045B2, “Glycopeptide antibiotics” (Wyeth Holdings Corporation, priority 2001, dated 2005).
≈ marks a conversion by molar mass, not a printed value.

Columns and labels:
Test in all cases: in vitro antibacterial evaluation, MIC by broth dilution
Type in all cases: cell-based
Enterococcus sp. = details: broth dilution, 18 hours at 35° C.
Procedure, shortened: (§1)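 Broth dilution per NCCLS M7-A2 in Mueller-Hinton II medium, inoculum 5×10^5 CFU/mL, antibiotic range 64-0.06 μg/mL. MIC taken as lowest concentration inhibiting growth; Gram-positive panel includes recent clinical isolates resistant to methicillin, penicillin and/or vancomycin.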

Escherichia coli = details: 18 hours at 35° C.
Procedure, shortened: as §1

Streptococcus sp. = details: broth dilution, 18 hours at 35° C.
Procedure, shortened: as §1

Staphylococcus sp. = details: broth dilution, 18 hours at 35° C.
Procedure, shortened: as §1

CC(c1ccccc1)C1NC(=O)CNC(=O)C(CO)NC(=O)C(C(O)C2CNC(=N)N2C2OC(CO)C(O)C(O)C2O)NC(=O)C(C(O)C2CNC(=N)N2)NC(=O)C(Cc2ccc(OC3OC(CO)C(OC4OC5COC(CC6CCCCC6)OC5C(O)C4O)C(O)C3O)cc2)NC1=O (stereo not shown) [Example 122]
MIC Enterococcus avium (GC 4558) (Enterococcus sp.; Enterococcus avium (GC 4558)): 2 µg/mL (≈ 1.43 µM)
MIC Enterococcus faecalis (ATCC 29212) (Enterococcus sp.; Enterococcus faecalis (ATCC 29212)): 2 µg/mL (≈ 1.43 µM)
MIC Enterococcus faecalis (GC 2242) (Enterococcus sp.; Enterococcus faecalis (GC 2242)): 2 µg/mL (≈ 1.43 µM)
MIC Enterococcus faecalis (GC 2691) (Enterococcus sp.; Enterococcus faecalis (GC 2691)): 2 µg/mL (≈ 1.43 µM)
MIC Enterococcus faecalis (GC 3059) (Enterococcus sp.; Enterococcus faecalis (GC 3059)): 2 µg/mL (≈ 1.43 µM)
MIC Enterococcus faecalis (GC 4552) (Enterococcus sp.; Enterococcus faecalis (GC 4552)): 2 µg/mL (≈ 1.43 µM)
MIC Enterococcus faecalis (GC 4553) (Enterococcus sp.; Enterococcus faecalis (GC 4553)): 4 µg/mL (≈ 2.85 µM)
MIC Enterococcus faecalis (GC 4554) (Enterococcus sp.; Enterococcus faecalis (GC 4554)): 2 µg/mL (≈ 1.43 µM)
MIC Enterococcus faecalis (GC 6189) (Enterococcus sp.; Enterococcus faecalis (GC 6189)): 2 µg/mL (≈ 1.43 µM)
MIC Enterococcus faecium (GC 2243) (Enterococcus sp.; Enterococcus faecium (GC 2243)): 2 µg/mL (≈ 1.43 µM)
MIC Enterococcus faecium (GC 4556) (Enterococcus sp.; Enterococcus faecium (GC 4556)): 2 µg/mL (≈ 1.43 µM)
MIC Enterococcus faecium (GC 4557) (Enterococcus sp.; Enterococcus faecium (GC 4557)): 4 µg/mL (≈ 2.85 µM)
MIC Enterococcus faecalis (ATCC 29212) (Enterococcus sp.; strain ATCC 29212): 2 µg/mL (≈ 1.43 µM)
MIC Enterococcus faecalis (GC 2242) (Enterococcus sp.; strain GC 2242): 2 µg/mL (≈ 1.43 µM)
MIC Enterococcus faecium (GC 2243) (Enterococcus sp.; strain GC 2243): 2 µg/mL (≈ 1.43 µM)
MIC Enterococcus faecalis (GC 2691) (Enterococcus sp.; strain GC 2691): 2 µg/mL (≈ 1.43 µM)
MIC Enterococcus faecalis (GC 3059) (Enterococcus sp.; strain GC 3059): 2 µg/mL (≈ 1.43 µM)
MIC Enterococcus faecalis (GC 4552) (Enterococcus sp.; strain GC 4552): 2 µg/mL (≈ 1.43 µM)
MIC Enterococcus faecalis (GC 4553) (Enterococcus sp.; strain GC 4553): 4 µg/mL (≈ 2.85 µM)
MIC Enterococcus faecalis (GC 4554) (Enterococcus sp.; strain GC 4554): 2 µg/mL (≈ 1.43 µM)
MIC Enterococcus faecium (GC 4556) (Enterococcus sp.; strain GC 4556): 2 µg/mL (≈ 1.43 µM)
MIC Enterococcus faecium (GC 4557) (Enterococcus sp.; strain GC 4557): 4 µg/mL (≈ 2.85 µM)
MIC Enterococcus avium (GC 4558) (Enterococcus sp.; strain GC 4558): 2 µg/mL (≈ 1.43 µM)
MIC Enterococcus faecalis (GC 6189) (Enterococcus sp.; strain GC 6189): 2 µg/mL (≈ 1.43 µM)
MIC Escherichia coli (ATCC 25922) (Escherichia coli; strain ATCC 25922): 32 µg/mL (≈ 22.8 µM)
MIC Escherichia coli (GC 4559) (Escherichia coli; strain GC 4559): 32 µg/mL (≈ 22.8 µM)
MIC Escherichia coli (GC 4560) (Escherichia coli; strain GC 4560): 2 µg/mL (≈ 1.43 µM)
MIC Streptococcus agalactiae (GC 4564) (Streptococcus sp.; Streptococcus agalactiae (GC 4564)): 0.12 µg/mL (≈ 0.0855 µM)
MIC Streptococcus pneumoniae (ATCC 6301) (Streptococcus sp.; Streptococcus pneumoniae (ATCC 6301)): <0.06 µg/mL
MIC Streptococcus pneumoniae (GC 1894) (Streptococcus sp.; Streptococcus pneumoniae (GC 1894)): <0.06 µg/mL
MIC Streptococcus pneumoniae (GC 4565) (Streptococcus sp.; Streptococcus pneumoniae (GC 4565)): 0.12 µg/mL (≈ 0.0855 µM)
MIC Streptococcus pyogenes (GC 4563) (Streptococcus sp.; Streptococcus pyogenes (GC 4563)): <0.06 µg/mL
MIC Streptococcus pneumoniae (ATCC 6301) (Streptococcus sp.; strain ATCC 6301): <0.06 µg/mL
MIC Streptococcus pneumoniae (GC 1894) (Streptococcus sp.; strain GC 1894): <0.06 µg/mL
MIC Streptococcus pyogenes (GC 4563) (Streptococcus sp.; strain GC 4563): <0.06 µg/mL
MIC Streptococcus agalactiae (GC 4564) (Streptococcus sp.; strain GC 4564): 0.12 µg/mL (≈ 0.0855 µM)
MIC Streptococcus pneumoniae (GC 4565) (Streptococcus sp.; strain GC 4565): 0.12 µg/mL (≈ 0.0855 µM)
MIC Staphylococcus aureus (ATCC 29213) (Staphylococcus sp.): 2 µg/mL (≈ 1.43 µM)
MIC Staphylococcus aureus (GC 1131) (Staphylococcus sp.): 2 µg/mL (≈ 1.43 µM)
MIC Staphylococcus aureus (GC 3051) (Staphylococcus sp.): 2 µg/mL (≈ 1.43 µM)
MIC Staphylococcus aureus (GC 3053) (Staphylococcus sp.): 2 µg/mL (≈ 1.43 µM)
MIC Staphylococcus aureus (GC 4541) (Staphylococcus sp.): 2 µg/mL (≈ 1.43 µM)
MIC Staphylococcus aureus (GC 4542) (Staphylococcus sp.): 2 µg/mL (≈ 1.43 µM)
MIC Staphylococcus aureus (GC 4544) (Staphylococcus sp.): 1 µg/mL (≈ 0.713 µM)
MIC Staphylococcus aureus (GC 4545) (Staphylococcus sp.): 2 µg/mL (≈ 1.43 µM)
MIC Staphylococcus aureus (GC 1131) (Staphylococcus sp.; inoculum 5×10^5 CFU/mL, strain GC 1131): 2 µg/mL (≈ 1.43 µM)
MIC Staphylococcus aureus (ATCC 29213) (Staphylococcus sp.; strain ATCC 29213): 2 µg/mL (≈ 1.43 µM)
MIC Staphylococcus aureus (GC 3051) (Staphylococcus sp.; strain GC 3051): 2 µg/mL (≈ 1.43 µM)
MIC Staphylococcus aureus (GC 3053) (Staphylococcus sp.; strain GC 3053): 2 µg/mL (≈ 1.43 µM)
MIC Staphylococcus aureus (GC 4541) (Staphylococcus sp.; strain GC 4541): 2 µg/mL (≈ 1.43 µM)
MIC Staphylococcus aureus (GC 4542) (Staphylococcus sp.; strain GC 4542): 2 µg/mL (≈ 1.43 µM)
MIC Staphylococcus aureus-SMITH (GC 4543) (Staphylococcus sp.; strain GC 4543): 2 µg/mL (≈ 1.43 µM)
MIC Staphylococcus aureus (GC 4544) (Staphylococcus sp.; strain GC 4544): 1 µg/mL (≈ 0.713 µM)
MIC Staphylococcus aureus (GC 4545) (Staphylococcus sp.; strain GC 4545): 2 µg/mL (≈ 1.43 µM)
MIC Staphylococcus haemolyticus (GC 4546) (Staphylococcus sp.; strain GC 4546): 2 µg/mL (≈ 1.43 µM)
MIC Coagulase Negative Staphylococcus (GC 4547) (Staphylococcus sp.; strain GC 4547): 2 µg/mL (≈ 1.43 µM)
MIC Coagulase Negative Staphylococcus (GC 4548) (Staphylococcus sp.; strain GC 4548): 1 µg/mL (≈ 0.713 µM)
MIC Coagulase Negative Staphylococcus (GC 4549) (Staphylococcus sp.; strain GC 4549): 1 µg/mL (≈ 0.713 µM)
MIC Coagulase Negative Staphylococcus (GC 4551) (Staphylococcus sp.; strain GC 4551): 2 µg/mL (≈ 1.43 µM)
MIC Coagulase Negative Staphylococcus (GC 6257) (Staphylococcus sp.; strain GC 6257): 1 µg/mL (≈ 0.713 µM)
MIC Staphylococcus aureus-SMITH (GC 4543) (Staphylococcus sp.; strain SMITH GC 4543): 2 µg/mL (≈ 1.43 µM)
